According to paper PMC10147662, “Structural basis for the ligand promiscuity of the neofunctionalized, carotenoid-binding fasciclin domain protein AstaP” (Communications Biology, 2023):

Experiments:
[1] = target: AstaPo1 (AstaP-orange1), residues 21-223 (Coelastrella astaxanthina, UniProt S6BQ14); experiment: differential scanning calorimetry, holoform vs apoform; type: binding; details: 20 mM Na-phosphate pH 7.0, 1 °C per min, apo Tm ~60 °C
AstaPo1^41–190 = target: T1, AstaPo1^41–190 (Coelastrella astaxanthina, UniProt S6BQ14); experiment: SEC with diode-array absorbance; Trp fluorescence quenching; DSC of holoform; type: binding; details: holoform from ZEA-synthesizing E. coli; apoform insoluble
T1 construct: gene astaP; isolated FAS1 domain 41-190, N- and C-terminal regions removed, His6 cut leaving GPHM, E. coli, 16 kDa, monomer
T1 sequence (S6BQ14 entry or part of it): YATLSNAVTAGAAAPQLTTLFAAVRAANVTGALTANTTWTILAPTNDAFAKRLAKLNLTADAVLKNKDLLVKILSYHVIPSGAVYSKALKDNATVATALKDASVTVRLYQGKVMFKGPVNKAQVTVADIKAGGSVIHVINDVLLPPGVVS

AstaPo1 (AstaP-orange1), residues 21-223, sequence (S6BQ14 entry or part of it): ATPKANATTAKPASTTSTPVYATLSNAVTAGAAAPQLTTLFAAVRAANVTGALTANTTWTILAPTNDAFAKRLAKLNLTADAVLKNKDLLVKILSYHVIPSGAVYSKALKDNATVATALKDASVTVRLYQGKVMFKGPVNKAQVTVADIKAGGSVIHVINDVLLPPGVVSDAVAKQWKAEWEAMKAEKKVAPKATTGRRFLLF

| Tm increase ([1]; holoform from CAN-synthesizing E. coli) [°C] | Tm increase ([1]; holoform from ZEA-synthesizing E. coli) [°C] | Compound | SEC with diode-array absorbance; Trp fluorescence quenching; DSC of holoform (AstaPo1^41–190) |
| --- | --- | --- | --- |
| > 15 | – | CC1=C(/C=C/C(C)=C/C=C/C(C)=C/C=C/C=C(C)/C=C/C=C(C)/C=C/C2=C(C)C(=O)CCC2(C)C)C(C)(C)CCC1=O [canthaxanthin] | – |
| – | > 15 | CC1=C(/C=C/C(C)=C/C=C/C(C)=C/C=C/C=C(C)/C=C/C=C(C)/C=C/C2=C(C)C[C@@H](O)CC2(C)C)C(C)(C)C[C@H](O)C1 [zeaxanthin] | which confirms the direct carotenoid interaction within this domain |
